According to patent publication US11834450B2, “Compounds having ((3-nitrophenyl)sulfonyl)acetamide as BCL-2 inhibitors” (Eil Therapeutics, Inc., priority 2021, dated 2023):

Assays:
[1] = molecular target: T1, BCL-2 (Homo sapiens, UniProt P10415); assay: BCL-2 TR-FRET Assay (primary PPI inhibition); assay type: binding; conditions: 60 min incubation; read-out: BCL2 (IC50 code, BCL-2 TR-FRET)
T1 construct: purchased BPS Bioscience #50222

[2] = tested on: MOLT-4 cells; assay: Cell viability assay MOLT-4 (CellTiter-Glo); assay type: cell-based; conditions: Homo sapiens, 72 h; MOLT-4 cells, 3 days, CellTiter-Glo; read-out: MOLT-4 (CC50 code)
Procedure, shortened: (§1)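 Cells were seeded at 2000/well (HEK293, in DMEM, pre-incubated a day) or 4000/well (other lines, in RPMI-1640). Serially diluted compound was added and plates incubated 3 days at 37 °C, with viability read by CellTiter-Glo luminescence.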

[3] = tested on: caspase-3 and -7 activities in RS4-11 cells; assay: Cas-3/7 activation (Caspase-Glo 3/7) in RS4-11 cells; assay type: cell-based; conditions: Homo sapiens, 3.5 h at 37° C. and 30 min at r.t., read-out: Cas-3/7 (EC50 code)
Procedure, shortened: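 RS4-11 cells were exposed to graded compound concentrations for 3.5 h at 37° C/5% CO2, then 30 min at room temperature. Caspase-3/7 activity was measured by luminescence after 30 min with a DEVD luminogenic substrate reagent.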

[4] = tested on: RS4-11 cells; assay: Cell viability assay RS4-11 (CellTiter-Glo); assay type: cell-based; conditions: Homo sapiens, 72 h; RS4-11 cells, 3 days, CellTiter-Glo; read-out: RS4-11 (CC50 code)
Procedure, shortened: as §1

[5] = molecular target: T2, BCL-XL (Homo sapiens, UniProt Q07817); assay: BCL-XL TR-FRET Assay (primary PPI inhibition); assay type: binding; conditions: 60 min incubation; read-out: BCLxL (IC50 code, BCL-XL TR-FRET)
T2 construct: purchased BPS Bioscience #50223
Procedure, shortened: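 10.5 ng His-tagged BCL-XL incubated 60 min with test compound, BCL-XL peptide ligand (1:80), Tb-labelled anti-His donor and dye-labelled acceptor (each 1:100). Displacement read as TR-FRET, excitation 340 nm, emission 620 and 665 nm, 60 μs delay, 500 μs integration.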

[6] = Cell viability assay HEK293 (CellTiter-Glo); assay type: cell-based; conditions: human, HEK293 cells, read-out: HEK293 (CC50 code)
Procedure, shortened: as §1

T1 sequence (P10415 whole entry): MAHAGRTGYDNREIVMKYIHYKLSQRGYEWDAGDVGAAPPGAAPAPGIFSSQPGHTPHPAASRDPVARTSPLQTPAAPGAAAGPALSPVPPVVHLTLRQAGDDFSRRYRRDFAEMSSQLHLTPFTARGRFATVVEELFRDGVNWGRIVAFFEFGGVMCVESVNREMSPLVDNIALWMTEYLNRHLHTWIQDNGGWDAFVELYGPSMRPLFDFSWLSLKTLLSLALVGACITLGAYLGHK
T2 sequence (Q07817 whole entry): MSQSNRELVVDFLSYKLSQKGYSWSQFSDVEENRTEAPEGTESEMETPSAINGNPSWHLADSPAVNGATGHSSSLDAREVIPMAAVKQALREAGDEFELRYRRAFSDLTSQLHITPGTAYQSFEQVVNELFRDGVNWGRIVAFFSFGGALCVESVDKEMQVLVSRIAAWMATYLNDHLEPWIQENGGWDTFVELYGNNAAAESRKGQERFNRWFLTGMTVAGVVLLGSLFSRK

Compound | IC50 [1] [µM] | CC50 [2] [µM] | EC50 [3] [µM] | CC50 [4] [µM] | IC50 [5] [µM] | CC50 at 3 days [6] [µM]
CC(C)C(=O)N1Cc2cc(F)ccc2C[C@H]1CN1CCN(c2ccc(C(=O)NS(=O)(=O)c3ccc(NCC4CCOCC4)c([N+](=O)[O-])c3)c(Oc3cnc4[nH]ccc4c3)c2)CC1 [Compound 48, 4-[4-[[(3S)-7-fluoro-2-(2-methylpropanoyl)-3,4-dihydro-1H-isoquinolin-3-yl]methyl]piperazin-1-yl]-N-[3-nitro-4-(tetrahydropyran-4-ylmethylamino)phenyl]sulfonyl-2-(1H-pyrrolo[2,3-b]pyridin-5-yloxy)benzamide] | > 0.05 | > 10 | > 0.25 | > 0.2 | > 4 | > 25
O=C(NS(=O)(=O)c1ccc(NCC2CCOCC2)c([N+](=O)[O-])c1)c1ccc(N2CCN(C[C@@H]3Cc4ccc(F)cc4CN3C(=O)C3CC3)CC2)cc1Oc1cnc2[nH]ccc2c1 [Compound 50, 4-[4-[[(3S)-2-(cyclopropanecarbonyl)-7-fluoro-3,4-dihydro-1H-isoquinolin-3-yl]methyl]piperazin-1-yl]-N-[3-nitro-4-(tetrahydropyran-4-ylmethylamino)phenyl]sulfonyl-2-(1H-pyrrolo[2,3-b]pyridin-5-yloxy)benzamide] | > 0.05 | > 10 | > 0.25 | > 0.2 | > 4 | > 25
O=C(NS(=O)(=O)c1ccc(NCC2CCOCC2)c([N+](=O)[O-])c1)c1ccc(N2CCN(CC34CC(O)CCC3(c3ccc(Cl)cc3)C4)CC2)cc1Oc1cnc2[nH]ccc2c1 (stereo not drawn) [Compound 80, 4-[4-[[6-(4-chlorophenyl)-3-hydroxy-norcaran-1-yl]methyl]piperazin-1-yl]-N-[3-nitro-4-(tetrahydropyran-4-ylmethylamino)phenyl]sulfonyl-2-(1H-pyrrolo[2,3-b]pyridin-5-yloxy)benzamide] | > 0.05 | > 10 | > 0.25 | > 0.2 | ≤ 2 | 10 to 25
O=C(NS(=O)(=O)c1ccc(NCC2CCOCC2)c([N+](=O)[O-])c1)c1ccc(N2CCC(CN3Cc4ccccc4C4(CCC4)C3)CC2)cc1Oc1cnc2[nH]ccc2c1 [Compound 46, N-[3-nitro-4-(tetrahydropyran-4-ylmethylamino)phenyl]sulfonyl-2-(1H-pyrrolo[2,3-b]pyridin-5-yloxy)-4-[4-(spiro[1,3-dihydroisoquinoline-4,1′-cyclobutane]-2-ylmethyl)-1-piperidyl]benzamide] | > 0.05 | 2 to 10 | > 0.25 | > 0.2 | > 4 | > 25
